This is an account of results in ChEMBL document CHEMBL1141448, “Curcumin induces high levels of topoisomerase I- and II-DNA complexes in K562 leukemia cells” (J Nat Prod, 2007).

pIC50: −log10 of the molar value. The source made the active and inactive calls. No cut-off for these calls is given here.

In assay [1] the test system is K562. Description: Cytotoxicity against human K562 cells after 5 days by XTT assay. It counts as functional, cell-based. The following applies: K562, 120 h. (Formazan colour is commonly taken as a measure of viable cells.)
The target of assay [2] is T1, DNA topoisomerase 1 (Homo sapiens) (UniProt P11387).
T1 sequence (whole entry): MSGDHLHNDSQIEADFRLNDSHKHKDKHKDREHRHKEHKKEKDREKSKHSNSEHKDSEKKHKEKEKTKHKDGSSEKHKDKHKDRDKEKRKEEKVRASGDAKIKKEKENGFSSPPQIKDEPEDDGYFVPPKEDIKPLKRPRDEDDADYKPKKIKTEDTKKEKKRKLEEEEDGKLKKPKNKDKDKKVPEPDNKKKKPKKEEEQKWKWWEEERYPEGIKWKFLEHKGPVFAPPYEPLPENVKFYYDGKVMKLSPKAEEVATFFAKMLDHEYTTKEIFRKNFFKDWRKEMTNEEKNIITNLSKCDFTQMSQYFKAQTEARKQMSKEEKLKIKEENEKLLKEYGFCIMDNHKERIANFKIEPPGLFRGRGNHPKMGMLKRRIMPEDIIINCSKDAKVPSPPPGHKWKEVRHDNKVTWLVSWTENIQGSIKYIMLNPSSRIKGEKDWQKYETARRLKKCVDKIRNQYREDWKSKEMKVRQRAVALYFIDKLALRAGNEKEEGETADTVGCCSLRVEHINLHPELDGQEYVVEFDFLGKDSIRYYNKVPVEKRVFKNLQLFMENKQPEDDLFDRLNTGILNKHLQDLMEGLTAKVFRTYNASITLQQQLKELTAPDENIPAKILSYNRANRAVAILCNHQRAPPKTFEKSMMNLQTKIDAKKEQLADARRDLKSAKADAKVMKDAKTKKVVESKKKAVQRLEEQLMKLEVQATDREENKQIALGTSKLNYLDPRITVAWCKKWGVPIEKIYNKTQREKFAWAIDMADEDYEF
Description: Binding affinity to topoisomerase 1 in human K562 cells assessed as stability of topoisomerase 1-DNA complex at 70 uM after 48 hrs by TARDIS assay. The assay is classed as cell-based.

Assay [3] has as its system K562. Description: Binding affinity to topoisomerase 2 in human K562 cells assessed as stability of topoisomerase 2-DNA complex at 70 uM after 48 hrs by TARDIS assay. The assay is classed as cell-based.
The target in assay [4] is T1, DNA topoisomerase 1 (Homo sapiens). Nature of the assay: Reversal of drug-induced topoisomerase 1-DNA complex in presence of N-acetyl cysteine at 70 uM after 24 hrs.
Assay [5] can be described thus: Reversal of drug-induced topoisomerase 2-DNA complex in presence of N-acetyl cysteine at 70 uM after 24 hrs.
Assay [6] concerns K562. Description: Binding affinity to topoisomerase 2 in human K562 cells assessed as increase in etoposide-induced topoisomerase 2-DNA complex at 20-70 uM after 24 hrs by TARDIS assay. The assay is classed as cell-based.
Assay [7] relates to K562. Nature of the assay: Binding affinity to topoisomerase 2 in human K562 cells assessed as increase in […]-induced topoisomerase 2-DNA complex at 20-70 uM after 24 hrs by TARDIS assay. It counts as cell-based.

Broadly, the pIC50 is the negative decadic logarithm of the IC50, by convention in mol/L. Lower therefore signals a high IC50. Consider `COc1cc(NS(C)(=O)=O)ccc1Nc1c2ccccc2nc2ccccc12` [AMSACRINE], for which the pIC50 in the assay on K562 [1] was 7.64. In turn, `CC[C@@]1(O)C(=O)OCc2c1cc1n(c2=O)Cc2cc3ccccc3nc2-1` [CAMPTOTHECIN] gave a pIC50 in the assay on K562 [1] of 7.40.

Turning to `COc1cc(/C=C/C(=O)CC(=O)/C=C/c2ccc(O)c(OC)c2)ccc1O` [CURCUMIN], in the assay with K562 [1], the pIC50 was 5.17. In addition, the result (in assay [2]; in the assay with K562 [3]; in assay [4]; in assay [5]; in the assay on K562 [6]; in the assay with K562 [7]) was Active. For the compound `O=C(CC(=O)c1ccccc1)c1ccccc1` [DIBENZOYLMETHANE], in the assay with K562 [1], the pIC50 is 4.51. Still for that read-out and setting: next, `COc1cc([C@@H]2c3cc4c(cc3[C@@H](O[C@@H]3O[C@@H]5CO[C@@H](C)O[C@H]5[C@H](O)[C@H]3O)[C@H]3COC(=O)[C@H]23)OCO4)cc(OC)c1O` [ETOPOSIDE]: 6.49; `COc1cc(/C=C/C(=O)O)ccc1O` [FERULATE]: under 3.00; `CC(=O)[C@]1(O)Cc2c(O)c3c(c(O)c2[C@@H](O[C@H]2C[C@H](N)[C@H](O)[C@H](C)O2)C1)C(=O)c1ccccc1C3=O` [IDARUBICIN]: 7.92. `O=C1c2c(O)ccc(O)c2C(=O)c2c(NCCNCCO)ccc(NCCNCCO)c21` [MITOXANTRONE] showed a pIC50 in the assay on K562 [1] of 8.59.
